“Also recorded” adds a separate entry of the source. Read-outs that look alike come from different tables or passages of the source.
Key:
GLT-1 = settings: Zelenaia et al. 2000, cited from earlier work; for effect on db-cAMP-dependent GLT-1 expression: db-cAMP-treated astrocytes; for GLT-1 induction in cultured astrocytes: Schlag et al. 1998
MCP-1 (CCL2) = test: ELISA of MCP-1 release from cultured astrocytes; format: cell-based, rat; settings: seven days
Procedure: (§1) After approximately 14 days (2 days after subplating into plates, DIV 14) astrocytes had formed a confluent monolayer. […] Phase contrast microscopy was then carried out in order to assess the morphology of cells after the various treatments. Length of astrocyte processes was quantified by measuring all processes in 2-3 phase contrast images/group by an independent observer, blinded to the treatment groups using Image J v1.34s (National Institutes of Health, Bethesda, Md.).
(§2) Standard ELISA was performed for quantitative determination of MCP-1 and MIP-2 protein in cell culture supernatant. Assays were carried out according to the manufacturer's specifications (Biosource, Camarillo, Calif.) using the sandwich enzyme immunoassay procedure. Optical density at 450 nm was obtained using the MRX Revelations program (Dynex Technologies, Chantilly, Va.) and relative protein concentrations were determined by comparing samples to the standard curve generated.

[1] = test system: Na+-dependent glutamate transport; settings: db-cAMP, Schlag et al. 1998; cited from earlier work
GLAST mRNA = test: Real Time RT-PCR of cultured astrocytes, GLAST mRNA; format: cell-based, rat; settings: propentofylline 10, 100, 1000 μM; db-cAMP 250 μM; relative to GAPDH
Procedure: as §1
Total RNA was isolated from astrocyte cultures using the Qiagen RNeasy mini-kit (Qiagen Inc., Valencia, Calif.) according to the manufacturer's protocol for isolation of total RNA from animal cells. Reverse transcription (RT) was carried out using the high-capacity cDNA archive kit (Applied Biosystems, Foster City, Calif.) according to the vendor's protocol. Real-time RT-PCR reactions were carried out in a total reaction volume of 25 μL containing a final concentration of 1.5 U Platinum Taq DNA polymerase (Invitrogen Corporation, Carlsbad, Calif.); 20 mM Tris HCl (pH 8.4); 50 mM KCl; 3 mM MgCl2; 200 μM dGTP, dCTP, and dATP; 400 μM dUTP and 1 U of UDG (uracyl DNA glycosylase); 900 nM of forward and reverse primers; 300 nM Taqman probe; and 5 μL of cDNA (50 ng) from the RT step. The iCycler™ Multicolor Real-Time PCR detection system (Bio-Rad Laboratories, Hercules, Calif.) was used to quantify PCR product. The fluorescence and threshold values (CT) obtained were used to compare the relative amount of target mRNA in experimental groups to those of controls using the 2^−ΔΔC^T method (Livak, K. J. and T. D. Schmittgen. 2001. Methods 25:402-408). Each experiment was run twice and samples were run in duplicate. For each sample, the mean CT value for the control gene (GAPDH) was then subtracted from the mean CT value for the gene of interest (GLT-1, GLAST) to obtain a ΔCT value. […] The relative fold change from control was then expressed by calculation of 2^−ΔΔC^T for each sample and the results are expressed as the group mean fold change±SEM.

MIP-2 (CXCL2) = test: ELISA of MIP-2 release from cultured astrocytes; format: cell-based, rat; settings: seven days, LPS 1 μg/ml; propentofylline 1000 μM; db-cAMP 250 μM
Procedure: as §1, §2

GLAST [2] = test: Western blot of cultured astrocytes, GLAST protein; format: cell-based, rat; settings: 3 or 7 days, normalized to β-actin
Procedure: as §1
Cells were scraped into PBS containing a protease inhibitor cocktail (1:1000, Sigma Chemical Co., St. Louis, Mo.) and then lysed by sonication in 5 one-second pulses. The samples were stored at −80° C. until use. Total protein was determined using the Lowry method (DC assay, Bio-Rad, Hercules, Calif.). Forty micrograms of protein (diluted in sample buffer and boiled) and standard protein markers were subjected to SDS/7.5% polyacrylamide gel electrophoresis and transferred to polyvinylidene difluoride (PVDF) membranes. Nonspecific binding was blocked by incubation with 5% milk/PBS-Tween at room temperature for 1 hour followed by incubation overnight at 4° C. with rabbit anti-GLT-1 (1:500) or guinea pig anti-GLAST (1:2500). The following day, blots were washed and incubated for 1 hour at room temperature with goat anti-rabbit HRP-conjugated secondary (1:3000) or goat anti-guinea pig HRP-conjugated secondary antibody (1:5000) and visualized with enhanced chemiluminescence (ECL). Images were obtained using the Typhoon Imaging System (Amersham-GE Healthcare, Piscataway, N.J.). Finally, blots were incubated for 15 minutes in stripping buffer and reprobed with a monoclonal mouse anti-β-actin antibody (1:10,000) as a loading control. Densitometric analysis was performed using ImageQuant 5.2 (Molecular Dynamics, GE Healthcare, Piscataway, N.J.).

GLAST [3] = test: Immunocytochemistry of cultured astrocytes, GLAST staining; format: cell-based, rat; settings: treated astrocytes
Procedure: Primary astrocyte-enriched cultures were plated onto sterile 18 mm glass coverslips. After three washes in PBS, cells were permeabilized in 5% glacial acetic acid/95% ethanol (acid-alcohol) for 10 minutes. After washing, cells were incubated in a 1% normal goat serum for 30 minutes and then overnight at 4° C. in primary mouse anti-GFAP (1:500), rabbit anti-GLT-1 (1:500) or guinea pig anti-GLAST (1:2000). The following day, cells were washed and then incubated for 2 hours at room temperature with goat anti-mouse Alexa Fluor™-555 (Invitrogen Corporation, Carlsbad, Calif.) goat anti-guinea pig Alexa Fluor™-488 (Invitrogen Corporation, Carlsbad, Calif.) or goat anti-rabbit Alexa Fluor™-488 (Invitrogen Corporation, Carlsbad, Calif.; all at 1:250). Finally, cells were post-fixed in acid-alcohol and mounted with Vectashield (Vector Labs, Burlingame, Calif.) containing 4′,6-diamidino-2-phenylindole dihydrochloride hydrate (DAPI, Sigma Chemical Co., St Louis, Mo.), in order to visualize cell nuclei. The sections were examined with a fluorescence microscope, and images were captured with a Q-Fire cooled camera (Olympus, Melville, N.Y.). Confocal microscopy was also performed using a Zeiss LSM 510 Meta confocal microscope (Carl Zeiss AG, Oberkochen, Germany). Merged color images were processed using Adobe Photoshop 7.0 (Adobe Systems, San Jose, Calif.).

GLT-1 mRNA = test: Real Time RT-PCR of cultured astrocytes, GLT-1 mRNA; format: cell-based, rat; settings: propentofylline 10, 100, 1000 μM; db-cAMP 250 μM; relative to GAPDH
Procedure: as §1
Total RNA was isolated from astrocyte cultures using the Qiagen RNeasy mini-kit (Qiagen Inc., Valencia, Calif.) according to the manufacturer's protocol for isolation of total RNA from animal cells. Reverse transcription (RT) was carried out using the high-capacity cDNA archive kit (Applied Biosystems, Foster City, Calif.) according to the vendor's protocol. Real-time RT-PCR reactions were carried out in a total reaction volume of 25 μL containing a final concentration of 1.5 U Platinum Taq DNA polymerase (Invitrogen Corporation, Carlsbad, Calif.); 20 mM Tris HCl (pH 8.4); 50 mM KCl; 3 mM MgCl2; 200 μM dGTP, dCTP, and dATP; 400 μM dUTP and 1 U of UDG (uracyl DNA glycosylase); 900 nM of forward and reverse primers; 300 nM Taqman probe; and 5 μL of cDNA (50 ng) from the RT step. The iCycler™ Multicolor Real-Time PCR detection system (Bio-Rad Laboratories, Hercules, Calif.) was used to quantify PCR product. The fluorescence and threshold values (CT) obtained were used to compare the relative amount of target mRNA in experimental groups to those of controls using the 2^−ΔΔC^T method (Livak, K. J. and T. D. Schmittgen. 2001. Methods 25:402-408). Each experiment was run twice and samples were run in duplicate. For each sample, the mean CT value for the control gene (GAPDH) was then subtracted from the mean CT value for the gene of interest (GLT-1, GLAST) to obtain a ΔCT value. The ΔCT values for the control group (untreated) were then averaged and subtracted from the ΔCT for the experimental groups to obtain the ΔΔCT. The relative fold change from control was then expressed by calculation of 2^−ΔΔC^T for each sample and the results are expressed as the group mean fold change±SEM.

[4] = test system: primary cultured astrocytes; test: Astrocyte morphology and process length, phase contrast microscopy; format: cell-based, rat
Procedure: Astrocyte cultures were prepared from the cortices of neonatal rats (1-3 days old) using the Worthington Papain Dissociation System (Worthington Biochemical Corporation, Lakewood, N.J.) according to the method of Huettner and Baughman (1986. J. Neurosci. 6:3044-3060). Briefly, cortices of neonatal rats were dissected, treated with papain (20 U/ml), dissociated by trituration and plated in 75 cm^2 flasks in Dulbecco's modified Eagle's medium (DMEM) supplemented with 10% charcoal-stripped fetal bovine serum (FBS), 1% GlutaMax and 1% penicillin/streptomycin (P/S, 100 U/ml penicillin, 100 μg/ml streptomycin, P/S). Cells were fed twice weekly until they reached confluence (Day in vitro, DIV 10-12) at which point they were mechanically shaken for 1 hr on an orbital shaker to remove any remaining oligodendrocytes and microglia. Subsequently, cultures were treated with trypsin for 30 minutes at 37° C. and re-plated into 6 or 12-well dishes at a density of about 3.0×10^4 cells/cm^2. Resultant cultures were greater than 95% astrocytic as determined by GFAP immunostaining.
as §1

S=C(S)N1CCCC1 [PDTC]
effect on db-cAMP-dependent GLT-1 expression (GLT-1): inhibited db-cAMP-mediated increases in GLT-1 expression

CCCCCCOC(=O)[C@]1(O)C[C@@H]2O[C@@]1(C)n1c3ccccc3c3c4c(c5c6ccccc6n2c5c31)C(=O)NC4 [KT5720]
effect on db-cAMP-dependent GLT-1 expression (GLT-1): blocks induction of GLT-1 protein

CCCC(=O)Nc1ncnc2c1ncn2[C@@H]1O[C@@H]2COP(=O)(O)O[C@H]2[C@H]1OC(=O)CCC [db-cAMP, dibutyryl cyclic-adenosine-5′,3′-monophosphate]
LPS-induced MCP-1 (CCL2) release (MCP-1 (CCL2); LPS 1 μg/ml, propentofylline 1000 μM, db-cAMP 250 μM): had no effect on LPS-induced chemokine release | basal MCP-1 (CCL2) release, treatment alone (MCP-1 (CCL2); without LPS): significantly increased MCP-1 (CCL2) above basal levels | GLT-1 induction in cultured astrocytes (GLT-1): induced high levels of GLT-1 protein expression | GLT-1 induction in cultured astrocytes (GLT-1; listed as dibutyryl-cAMP): induce astrocytic maturation and GLT-1 induction | increase in glutamate transport activity [1]: 2 fold | sensitivity of increased glutamate uptake to DHK [1]: DHK-insensitive | GLAST mRNA level, in words (GLAST mRNA): mimicked | LPS-induced MIP-2 (CXCL2) release (MIP-2 (CXCL2)): had no effect on LPS-induced chemokine release | GLAST protein level, in words (GLAST [2]): greater increase in GLAST than high dose propentofylline | GLAST staining (GLAST [3]): slightly increased GLAST staining | GLT-1 mRNA level, in words (GLT-1 mRNA): mimicked | astrocyte morphology ([4]; 3 days or 7 days of treatment, phase contrast microscopy): extend fewer, longer processes | length of astrocyte processes ([4]; 7 days, 250 μM db-cAMP vs. 1000 μM propentofylline): significantly longer processes than propentofylline; also recorded: significantly longer processes than PPF

COc1cccc(-c2cc(=O)c3ccccc3o2)c1N [PD98059]
effect on db-cAMP-dependent GLT-1 expression (GLT-1): partially attenuates

Reference: US20090227606A1, “Methods for Preventing or Treating Acute and Chronic Pain” (priority 2006, published 2009)
